Measured values: patent publication US9084770B2, “Modulation of insulin like growth factor I receptor expression in cancer” (Antisense Therapeutics, Ltd., priority 2008, dated 2015)
Marks after values point to notes of the source that are not given here.

Key:
LNCaP cells = test: LNCaP cell viability, crystal violet assay; assay type: cell-based, human
Experimental: (§1) Established methods were used to test the activity of IGF-IR antisense oligonucleotide on LNCaP and PC-3 cell growth (crystal violet assay) and apoptosis (FACS). Dose- and sequence-specific suppression of IGF-IR mRNA and protein expression in ATL1101-treated LNCaP and PC3 PC cell lines in vitro were observed by QT-PCR and western blotting. Effects of the IGF-IR antisense oligonucleotide on various putative targets, including IGF-IR and downstream targets were evaluated using western blotting.
Cells were transfected with indicated concentrations of ATL1101, control oligodeoxynucleotides or oligofectamine as in FIGS. 1A(i)-1A(ii). Three days after treatment, cell viability was determined by crystal violet assay. Viable cell density was normalized to that of cells treated with oligofectamine. Points, means of triplicate analysis; bars, SE. *, p<0.05 differs from control oligodeoxynucleotide treatment group. **, p<0.01 differs from control oligodeoxynucleotide treatment group by Student's t test.

PC3 cells = test: PC3 cell cycle and apoptosis, flow cytometry with propidium iodide; assay type: cell-based, human; details: PC3, FBS condition, 200 nM
Experimental: as §1
The Effect of IGF-IR silencing with IGF-IR antisense oligonucleotide (ATL1101) on LNCaP and PC3 cell apoptosis and cell cycle is shown in FIGS. 4A(i)-(ii), 4B, 4C(i)-(ii), and Table 2. Cells were transfected with indicated concentrations of ATL1101, control oligodeoxynucleotide or oligofectamine as in FIGS. 1A(i)-1B(ii). Two days after treatment, cell cycle analysis was determined by flow cytometry using propidium iodide staining. […] In FIGS. 4C(i)-(ii), LNCaP (FIG. 4C (i)) or PC-3 (FIG. 4C (ii)) cells were transfected with indicated concentration of ATL1101 or control oligodeoxynucleotide (ISIS 306064) for two days. Cells were then cultured in FBS media for one day and in serum-free media for one day. Whole cell lysates (30 μg) were subjected to SDS-PAGE and immunoblotted to assess Cyclin D1, Cyclin E, p-RB, total Rb, and p27 protein levels. Oligo, oligofectamine treated cells only.

IGF-IR mRNA = IGF-IR mRNA expression in transfected LNCaP and PC-3 cells, quantitative RT-PCR; assay type: cell-based, human; details: one day after treatment
Experimental: as §1
FIGS. 1A(i)-1A(ii) show the sequence-specific and dose-dependent suppression of IGF-IR mRNA expression levels by ATL1101 in LNCaP (FIG. 1A (i)) and PC-3 (FIG. 1A (ii)) cells. […] One day after treatment, total RNA was extracted, and IGF-IR mRNA expression was analyzed by quantitative RT-PCR. IGF-IR mRNA levels were normalized to levels of GAPDH mRNA and expressed here as mean±SE. ***, p<0.001 differ from control (oligofectamine only) by Student's t test. “Control” cells were treated with oligofectamine only. In LNCaP cells, IGF-IR expression was >70% suppressed by 10 nM ATL1101 and >90% at 200 nM ATL1101. In PC3 cells, IGF-IR expression was suppressed ˜40% at 10 nM ATL1101, >50% at 50 nM ATL1101 and ˜80% at 200 nM. Control oligodeoxynucleotide (ISIS 306064) did suppress IGF-IR mRNA expression but by less than 25% at maximal doses tested

IGF-IRβ, p-AKT, pERK1/2 = test: PC3 xenograft tumor proteins, western blotting; assay type: in vivo; details: after 7 days of treatment; two of three mice
Experimental: Total PC3 xenograft tumor proteins were extracted after the treatment of IGFI-R antisense oligonucleotide or control oligodeoxynucleotide for 7 days and IGF-IRβ, p-AKT, pERK1/2, and vinculin protein levels were analyzed by western blotting. Tumor growth ratio of corresponding tumors are also shown (FIG. 5E).

[1] = system: insulin receptor-B (IR-B); test: Insulin receptor-B protein in transfected LNCaP and PC3 cells, immunoblot; assay type: cell-based, human; details: highest ATL1101 concentration tested for each cell line (LNCaP, PC3)
Experimental: FIGS. 1B(i)-1B(ii) show sequence-specific and dose-dependent inhibition of IGF-IR protein by IGF-IR antisense oligonucleotide in LNCaP (FIG. 1B (i)) and PC-3 (FIG. […]) cells. […] Two days after the second transfection, whole cell detergent lysates were prepared and 30 μg of total protein was subjected to SDS-PAGE and immunoblotted for IGF-IRB subunit, IR-BB subunit and vinculin expression. Oligofectamine, oligofectamine treated cells only. In LNCaP cells, IGF-IR expression was >80% suppressed by 10 nM ATL1101 and was undetectable at 100 nM ATL1101. In PC3 cells, IGF-IR expression was suppressed ˜50% at 10 nM ATL1101, >80% at 50 nM ATL1101 and >90% at 200 nM. […] Vinculin expression is shown as a loading control.

[2] = system: insulin receptor IR-A, IR-B, IR-β protein; test: Insulin receptor transcripts and protein in PC3 Ptx-R cells; assay type: cell-based, human
Excerpt: The PC3 Ptx-R cells retain sensitivity to ATL1101-induced IGF-IR down regulation at the mRNA and protein level as shown in FIGS. 11A-C. […] ATL1101 and the control oligodeoxynucleotide ISIS 306064 had no effect on either of the alternative spliced isoform transcripts of the insulin receptor, IR-A, IR-B or IR-β protein or vinculin protein levels.

[3] = system: IGF-IRβ, p-AKT, p-ERK1/2, cleaved PARP; test: Intracellular signaling in LNCaP and PC3 cells, immunoblot; assay type: cell-based, human; details: 100 nM
Experimental: The suppression of intracellular signaling in IGF-IR antisense oligonucleotide-treated LNCaP (FIG. 3A) and PC3 (FIG. 3B) in vitro is shown in FIGS. 3A-3B. LNCaP or PC3 cells were transfected with 100 nM ATL1101 or control oligodeoxynucleotide (ISIS 306064) for two days. Cells were then cultured in FBS media for one day and in serum-free media for one day. Whole cell lysates (30 μg) were subjected to SDS-PAGE and immunoblotted to assess IGF-IRβ, p-AKT, total AKT, p-ERK1/2, total ERK1/2, cleaved PARP, and vinculin protein levels. Oligo, oligofectamine treated cells only.

cgaaggaaacaatactccga (CGAAGGAAACAATACTCCGA; 2'-MOE modified, pattern not given here) [ISIS 175317, 2′-MOE-modified IGF-IR antisense oligonucleotide, also known as ATL1101]
maximum reduction of cell viability relative to control (LNCaP cells; FBS media, achieved by 100 nM, three days after treatment): ~60% | suppression of cell viability (LNCaP cells; androgen-deprived conditions (CSS), 25 nM): 60% | % of total cells, G0/G1 (PC3 cells): 19.3% | % of total cells, G2/M (PC3 cells): 8.4% | % of total cells, S (PC3 cells): 9.8% | % of total cells, Sub G0/G1 (PC3 cells): 62.5% | subG0/G1 + G0/G1:S + G2/M (PC3 cells): 4.5** | suppression of IGF-IR mRNA expression (IGF-IR mRNA; LNCaP cells, 10 nM): > 70% | suppression of IGF-IR mRNA expression (IGF-IR mRNA; LNCaP cells, 200 nM): > 90% | suppression of IGF-IR mRNA expression (IGF-IR mRNA; PC3 cells, 10 nM): ~40% | suppression of IGF-IR mRNA expression (IGF-IR mRNA; PC3 cells, 50 nM): > 50% | suppression of IGF-IR mRNA expression (IGF-IR mRNA; PC3 cells, 200 nM): ~80% | IGF-IR expression in tumor (IGF-IRβ, p-AKT, pERK1/2): decreased | activation of AKT and ERK1/2 in tumor (IGF-IRβ, p-AKT, pERK1/2): suppressed | suppression of IR-B expression [1]: < 10% | insulin receptor IR-A, IR-B transcripts or IR-β protein levels [2]: no effect | IGF-IR expression [3]: undetectable | activation of AKT and ERK1/2 [3]: suppressed | cleaved PARP production [3]: increased
